# Reference: US7786141B2 (Vertex Pharmaceuticals Incorporated, priority 2004, dated 2010)
# Legend:
# [1] = target: T1, M1 muscarinic receptor (Homo sapiens, UniProt P11229); assay: Functional mobilization of intracellular calcium (FLIPR) in M1-CHO cells; type: cell-based; conditions: M1 receptor, calcium mobilization; for Emax: read-out: M1 Efficacy
# T1 construct: expressed in transfected cells; host or cells: CHO (M1-CHO)
# T1 sequence (P11229 1-460): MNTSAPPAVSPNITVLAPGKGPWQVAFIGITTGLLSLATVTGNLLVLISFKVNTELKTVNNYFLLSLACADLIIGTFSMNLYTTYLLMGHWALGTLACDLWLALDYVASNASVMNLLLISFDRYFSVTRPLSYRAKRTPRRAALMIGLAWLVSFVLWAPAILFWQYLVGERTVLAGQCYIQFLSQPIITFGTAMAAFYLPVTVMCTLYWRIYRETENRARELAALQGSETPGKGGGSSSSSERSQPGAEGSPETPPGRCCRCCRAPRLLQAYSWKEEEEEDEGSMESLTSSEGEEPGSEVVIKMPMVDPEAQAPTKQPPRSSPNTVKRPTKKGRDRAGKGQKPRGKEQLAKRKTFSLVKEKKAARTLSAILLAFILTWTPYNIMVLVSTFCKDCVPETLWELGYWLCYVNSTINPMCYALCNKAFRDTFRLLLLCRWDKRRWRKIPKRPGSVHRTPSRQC
# Experimental: (§1) Functional Mobilization of Intracellular Calcium to Determine Muscarinic Receptor Activity:
# (§2) CHO cells expressing muscarinic receptors (M1 to M5) are grown as monolayers in tissue culture flasks at 37° C. in a humidified atmosphere containing 5% CO2 and passaged every 3-5 days. The growth media is Dulbecco's modified eagles medium (DMEM, Gibco Cat# 12430-054), containing 25 mM Hepes and supplemented with Fetal Bovine Serum (Hyclone, cat# SH30071.03), 0.1 mM of MEM non-essential amino acids (GIBCO, Cat# 11140-050), 1 mM MEM Sodium Pyruvate (GIBCO Cat# 11360-070) and 100 units/ml of Penicillin G and 100 μg/ml of Streptomycin (GIBCO Cat# 15140-122). The recombinant muscarinic receptor cell lines are grown under antibiotic pressure with media containing 25 μg/ml zeocin and 500 μg/ml G418 (M1-CHO), 4 μg/ml puromycin, 50 μg/ml zeocin and 2.5 μg/ml blasticidin (M2 and M4-CHO) or 50 μg/ml zeocin and 4 μg/ml puromycin (M3 and M5-CHO).
# (§3) Cells are harvested at 80-90% confluence using Versene (GIBCO Cat# 15040-066), collected by centrifugation and seeded 18-24 hrs prior to running the calcium assay at a density of 5,000 cells/well in back-walled, clear-bottomed 384-well plates (BD Biocoat, poly-D-lysine, Cat#356663). The day of the experiment, the cells are washed with a plate washer (Bioteck Instruments, ELX 405) using bath 1 buffer (140-mM NaCl, 4.5-mM KCl, 2-mM CaCl2, 1-mM MgCl2, 10-mM Hepes-Na, 10-mM Glucose, pH 7.4, with NaOH) containing 1 mM Probenecid. Next, the calcium dye Fluo-3 (25 μl/well of Fluo-3 AM at 4 μM, Molecular Probes F-1241, in Bath 1 buffer containing 1 mM Probenecid) is added to the 25 μl of Bath 1 remaining in each well after the plate wash and the dye is loaded at 37° C. in the tissue culture incubator for 60-90 min. The fluorescent dye is removed using the plate washer with Bath 1 containing 1 mM Probenecid, leaving 25 μl/well of this solution after the wash. Alternatively, cells can be loaded with the calcium indicator from Molecular Devices (Calcium 3 Assay Reagents, Cat # R7181) adding 5 μl of a 5× solution dye in Bath 1 containing 1 mM Probenecid (10 ml per dye flask cat# R7182 to generate a solution 20×) to 20 μl of the same buffer. After loading for 60 min, the experiment can be run without having to remove the dye.
# (§4) Compounds are prepared at a 2× fold concentration in a 96-well plate (round bottom, Costar Corning cat# 3656), by reconstituting the pre-spotted compounds in bath 1 containing 1 mM probenecid. The final concentration DMSO is 0.5%, and the amount of DMSO is normalized across the assay plate. To determine an agonist action of the compounds on muscarinic receptors, the reconstituted compounds are added (25 μl compound/well) to the cell assay plate (containing 25 μl/well) using the multi-channel robotic system of the FLIPR 3 Instrument (Molecular Devices, Sunnyvale, Calif.). To determine a functional inhibitory action of the compounds on muscarinic receptors, the reconstituted compounds are added (25 μl compound/well) to the assay plate and pre-incubated for 15 min prior to adding 25 μl of Carbachol at 3× the EC80 for each muscarinic subtype. Alternatively, the compounds can be co-applied simultaneously with the agonist. In both assay modes, the fluorescence is recorded for 60 sec (excitation wavelength is […] and emission wavelength 540 nm) using the FLIPR 3 instrument.
# (§5) The potency, efficacy and selectivity of the muscarinic compounds were evaluated by screening the compound activity across the whole family (M1 to M5 cells). Compounds were also screened for activity on other proteins such as other GPCRs and ion channels to determine selectivity on M4 receptors.
# [2] = target: T2, M4 muscarinic receptor (Homo sapiens, UniProt P08173); assay: Functional mobilization of intracellular calcium (FLIPR) in M4-CHO cells; type: cell-based; conditions: M4 receptor, calcium mobilization; for Emax: read-out: M4 Efficacy
# T2 construct: expressed in transfected cells; host or cells: CHO (M4-CHO)
# T2 sequence (P08173 1-479): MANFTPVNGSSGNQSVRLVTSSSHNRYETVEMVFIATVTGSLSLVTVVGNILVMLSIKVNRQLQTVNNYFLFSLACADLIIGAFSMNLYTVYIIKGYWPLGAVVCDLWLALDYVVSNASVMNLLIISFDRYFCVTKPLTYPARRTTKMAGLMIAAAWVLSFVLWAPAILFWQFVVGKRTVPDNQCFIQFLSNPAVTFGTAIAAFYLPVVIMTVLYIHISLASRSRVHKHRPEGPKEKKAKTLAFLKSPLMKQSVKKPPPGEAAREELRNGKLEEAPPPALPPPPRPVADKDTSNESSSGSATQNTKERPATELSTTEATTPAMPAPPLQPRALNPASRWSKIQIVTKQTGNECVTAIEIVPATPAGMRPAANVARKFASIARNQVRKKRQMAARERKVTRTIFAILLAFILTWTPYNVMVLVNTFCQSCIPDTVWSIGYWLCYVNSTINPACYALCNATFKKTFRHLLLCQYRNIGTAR
# Experimental: as §1, §2, §3, §4, §5
Structure (SMILES),M1 Activity [1],Emax [1],M4 Activity [2],Emax [2]
O=C(O[C@@H]1CCOC1)N1C2CCC1CC(N1CCC3(CCc4ccccc43)CC1)C2 (some centres unmarked) [compound 43],xxx (activity was measured to be less than 0.1 μM),> 85%,x (activity was measured to be greater than 1.0 μM),> 85%
COC(=O)N1C2CCC1CC(N1CCC3(CC1)CN(C(=O)c1cc(C)n(C)n1)c1ccc(F)cc13)C2 (centres unmarked) [compound 44],xxx (activity was measured to be less than 0.1 μM),65 to 85%,xx (activity was measured to be between 0.1 μM and 1.0 μM),> 85%
CCOC(=O)N1CCC(N2CCC3(CC2)CN(C(=O)c2cccc(OC)c2)c2ccc(F)cc23)CC1 [compound 45],xxx (activity was measured to be less than 0.1 μM),> 85%,xxx (activity was measured to be less than 0.1 μM),65 to 85%
CCOC(=O)N1CCC(CN2CCC3(CC2)CN(C(C)=O)c2ccc(C)cc23)CC1 [compound 46],xxx (activity was measured to be less than 0.1 μM),> 85%,xxx (activity was measured to be less than 0.1 μM),65 to 85%
CC(=O)N1CC2(CCN(C3CC4CCC(C3)N4C(=O)O[C@H]3CCOC3)CC2)c2cc(F)ccc21 (some centres unmarked) [compound 47],xxx (activity was measured to be less than 0.1 μM),65 to 85%,xx (activity was measured to be between 0.1 μM and 1.0 μM),65 to 85%
CN(C)C(=O)N1CC2(CCN(C3CCN(C(=O)OCCF)CC3)CC2)c2cc(F)ccc21 [compound 48],xxx (activity was measured to be less than 0.1 μM),> 85%,xx (activity was measured to be between 0.1 μM and 1.0 μM),65 to 85%
CCOC(=O)N1CCC(N2CCC3(CC2)CN(C(=O)O[C@H]2CCOC2)c2ccc(F)cc23)CC1 [compound 49],xxx (activity was measured to be less than 0.1 μM),> 85%,xxx (activity was measured to be less than 0.1 μM),65 to 85%
CCOC(=O)N1C2CCC1CC(N1CCC3(CC1)CN(C(=O)c1cc(C)n(C)n1)c1ccc(F)cc13)C2 (centres unmarked) [compound 50],xxx (activity was measured to be less than 0.1 μM),> 85%,xx (activity was measured to be between 0.1 μM and 1.0 μM),> 85%
Cc1ccc2c(c1)C1(CCN(C3CC4CCC3C4)CC1)CN2C(=O)C1CC1 (centres unmarked) [compound 51],xxx (activity was measured to be less than 0.1 μM),65 to 85%,xx (activity was measured to be between 0.1 μM and 1.0 μM),65 to 85%
CC(=O)N1CC2(CCN(C3CCCCC3C)CC2)c2cc(F)ccc21 (centres unmarked) [compound 52],xxx (activity was measured to be less than 0.1 μM),> 85%,xxx (activity was measured to be less than 0.1 μM),65 to 85%
CCOC(=O)N1CCC(N2CCC3(CC2)CN(C(=O)c2ccccc2C)c2ccc(F)cc23)CC1 [compound 53],xx (activity was measured to be between 0.1 μM and 1.0 μM),< 65%,xx (activity was measured to be between 0.1 μM and 1.0 μM),65 to 85%
CC(C)OC(=O)N1CCC(N2CCC3(CC2)CN(C(=O)N(C)C)c2ccc(F)cc23)CC1 [compound 54],xxx (activity was measured to be less than 0.1 μM),> 85%,xx (activity was measured to be between 0.1 μM and 1.0 μM),65 to 85%
CC(C)C(=O)N[C@H]1CC2(CCN(C[C@H]3C[C@H]4CC[C@H]3C4)CC2)c2ccccc21 [compound 55],xxx (activity was measured to be less than 0.1 μM),> 85%,xxx (activity was measured to be less than 0.1 μM),65 to 85%
CCOC(=O)N1C2CCC1CC(N1CCC3(CC1)CC(=O)Nc1ccccc13)C2 (centres unmarked) [compound 56],xxx (activity was measured to be less than 0.1 μM),65 to 85%,xxx (activity was measured to be less than 0.1 μM),65 to 85%
O=C(C1CC1)N1CC2(CCN(C3CC4CCC(C3)N4C(=O)O[C@H]3CCOC3)CC2)c2cc(F)ccc21 (some centres unmarked) [compound 57],xxx (activity was measured to be less than 0.1 μM),65 to 85%,xxx (activity was measured to be less than 0.1 μM),65 to 85%
CCOC(=O)N1CCC(N2CCC3(CC2)CN(C(C)=O)c2ccc(-c4ccc(C)cc4)cc23)CC1 [compound 58],xxx (activity was measured to be less than 0.1 μM),65 to 85%,xx (activity was measured to be between 0.1 μM and 1.0 μM),65 to 85%
CCOC(=O)N1C2CCC1CC(N1CCC3(CC1)CN(C(=O)c1snnc1C)c1ccc(F)cc13)C2 (centres unmarked) [compound 59],xxx (activity was measured to be less than 0.1 μM),< 65%,xx (activity was measured to be between 0.1 μM and 1.0 μM),65 to 85%
CCOC(=O)N1CCC(CN2CCC3(CC2)CN(C(C)=O)c2ccc(F)cc23)CC1 [compound 60],xx (activity was measured to be between 0.1 μM and 1.0 μM),65 to 85%,x (activity was measured to be greater than 1.0 μM),65 to 85%
CCOC(=O)N1CCC(N2CCC3(CC2)C[C@H](NC(C)=O)c2ccccc23)CC1 [compound 61],xxx (activity was measured to be less than 0.1 μM),65 to 85%,xx (activity was measured to be between 0.1 μM and 1.0 μM),65 to 85%
C#CCCOC(=O)N1CCC(N2CCC3(CC2)CN(C(C)=O)c2ccc(F)cc23)CC1 [compound 62],xxx (activity was measured to be less than 0.1 μM),< 65%,xx (activity was measured to be between 0.1 μM and 1.0 μM),65 to 85%
